Laboratory results taken from publication PMC9096165 (Frontiers in Pharmacology, 2022).

Key:
urinary bladder = type: in vivo; conditions: chronic CYP 75 mg kg^−1 i.p. three times every third day
Protocol: CYP was administered to the animals by the intraperitoneal (i.p.) route (5 ml kg^−1) at the dosage of 75 mg kg^−1 for three times every third day to elicit chronic bladder irritation, as previously described ([Vizzard et al., 1996]).
Animals pre-treated with the vehicle or a single high oral dose of DF2755A (20 mg kg^−1; 12 h before the first CYP administration) followed by repeated lower doses administration (7 mg kg^−1 twice daily for 7 days) during IC development were deeply anesthetized with isoflurane (4%) and then killed.
After killing, rat abdomen was opened through a midline incision, and bladder and proximal urethra were exposed. A catheter was inserted into the bladder through the urethra and a loose ligature was placed around the neck of the urinary bladder. Bladder was inflated with saline via the catheter to slightly distend the bladder and ligature was tightened to maintain proper distension. Bladder was then excised cutting above the insertion point of ureters, and therefore the bladder neck was not included into the bladder sample. Bladders were opened using scissors and, after gross macroscopic evaluation and weighing, each bladder was cut into two equal pieces (named B1 and B2) and weighted again individually. One piece (B1) was placed in Eppendorf, then snap-frozen in liquid nitrogen, and stored at −80°C until quantification using ELISA assay. The second piece (B2) was placed in 10% formalin and stored at room temperature. Then the same samples were placed in 70% ethanol, then processed in paraffin blocks, and then trimmed according to the longitudinal plane to ensure the correct analysis of all the bladder sample. Sections were stained with hematoxylin and eosin (HE), and slides were then digitalized using a Pathscan® Touch scanner in the bright field mode with a ×20 objective. For the microscopic observations of bladder inflammation, the following parameters were analyzed: bladder edema in scores (n = 10/group), bladder hemorrhage in scores (n = 10/group), urothelial loss in scores (n = 10/group), and total inflammatory score, which was calculated by adding all the individual lesion scores (n = 10/group).

CXCR1 = CXCR1 mRNA expression in F11 cells (RT PCR); type: cell-based; conditions: CYP 100 nM alone
Text: (§1) For these experiments, cells at 18th passage were used.
(§2) Triplicate samples were run for each gene.

F11 cells = experiment: F11 cell viability (CellTiter AQueous One); type: cell-based; conditions: differentiated F11 cells, 24 h, 5 to 200 nM
Protocol: as §1
[…] Cell viability was determined using the colorimetric method CellTiter AQueous One Solution Cell Proliferation Assay (Promega Corporation, United States), as previously reported ([Brandolini et al., 2017]). The quantity of formed formazan, as a function of viability, was measured at 492 nm using an ELISA plate reader, Infinite F200 (Tecan, Männedorf, Swiss). The results from five independent experiments were expressed as absorbance at 492 nm.

CXCR2 = CXCR2 mRNA expression in F11 cells (RT PCR); type: cell-based; conditions: CYP 100 nM alone
Text: as §1, §2

TRPV1 [1] = experiment: TRPV1 mRNA expression in F11 cells (RT PCR); type: cell-based; conditions: CYP 100 nM alone
Text: as §1, §2

CXCL1 = CXCL1 mRNA expression in F11 cells (RT PCR); type: cell-based; conditions: CYP 100 nM alone
Text: as §1, §2

TRPV1 [2] = experiment: TRPV1 protein level in F11 cells (Western blotting); type: cell-based; conditions: CYP 100 nM alone
Text: as §1, §2
Control and treated F11 cells were collected and lysed in an ice-cold RIPA buffer containing protease and phosphatase inhibitor cocktail (Sigma-Aldrich, United States). The extracted proteins were quantified using BCA assay (Thermo, United States). NuPAGE lithium dodecyl sulfate sample buffer (Cat#NP007, Thermo, United States) and NuPAGE sample reducing agent (Cat#NP0004, Thermo, United States) were added to the samples and then put in the Thermoblock (Eppendorf, United Kingdom) at 75°C for 10 min. Protein lysates (30 μg) were separated on NuPAGE bis–tris glycine gradient precast gel (Cat#NP0321PK2, Invitrogen, United States) and electroblotted on a PVDF membrane (Cat#IPVH00010, Millipore, United States) using a semi-dry system (Thermo, United States). Non-specific binding sites were blocked by blocking solution (Cat#000105, Invitrogen, United States) for 15 min at RT. […] The relative densities of the immunoreactive bands were determined and normalized with respect to actin, using Fiji software. […]

TRPV4 = conditions: F11 cells, CYP 100 nM alone
Protocol: F11 hybridoma cell line (ECACC 08062601), chosen as a model of dorsal root ganglion (DRG) neurons ([Platika et al., 1985]; [Brandolini et al., 2017]) was cultivated in DMEM (Corning, United States) supplemented with 10% heat-inactivated FBS (Sigma-Aldrich St. Louis, CO, United States), 1% penicillin/streptomycin, and 1% glutamine (Sigma-Aldrich, United States) at 37°C, in a humidified 95% air and 5% CO2 atmosphere. For these experiments, cells at 18th passage were used. Cells were differentiated with the rat nerve growth factor (rNGF; Sigma-Aldrich, United States). rNGF was dissolved in DMEM with 1% penicillin/streptomycin and 1% glutamine (FBS free) at the final concentration of 50 ng ml^−1. Medium was replaced every 3 days until complete differentiation, which occurred after 7 days.
TRPV1 and TRPV4 mRNA expression and protein levels and CXCR1, CXCR2, and CXCL1 mRNA levels were evaluated in F11 cells exposed to CYP. […] The total RNA concentration was determined in RNAase-free water using Nanodrop, while the concentration was determined using the Qubit Fluorometer 3.0 (Thermo, United States). […] Relative expression levels were calculated for each sample after normalization against the reference gene, using the 2^−ΔΔCt method for comparing relative fold expression differences.

[3] = system: acute CYP-induced IC model; parameters: method as in Dornelles et al., 2014; conditions: acute CYP-induced IC rat model with inflammatory bladder infiltrate; ref Dornelles et al., 2014; cited from earlier work

SMILES | bladder hemorrhage (urinary bladder) | inflammatory infiltrate and urothelial hyperplasia in urinary bladder (urinary bladder) | bladder edema, mean score (urinary bladder; score 0–4 (Table 1)) | urothelial loss, mean score (urinary bladder; score 0–4 (Table 1)) | CXCR1 mRNA expression versus control (CXCR1) | neuronal cell viability (F11 cells) | CXCR2 mRNA expression versus control (CXCR2) | TRPV1 mRNA expression versus control (TRPV1 [1]) | CXCL1 mRNA expression versus control (CXCL1) | TRPV1 protein level versus control (TRPV1 [2]) | TRPV4 mRNA expression versus control (TRPV4) | effect on nociceptive behavior [3]
O=P1(N(CCCl)CCCl)NCCCO1 (stereo not drawn) [CYP, Cyclophosphamide, reference compound] | no hemorrhage | no inflammatory infiltrate and no urothelial hyperplasia | 0.4 ± 0.16 | 0.1 ± 0.10 | significantly increased | did not modulate neuronal cell viability | significantly increased | significantly increased | significantly increased | increased | did not change | 
O=C(Nc1ccc([N+](=O)[O-])cc1O)Nc1ccccc1Br [SB225002] |  |  |  |  |  |  |  |  |  |  |  | antinociceptive effect
